These results are taken from patent US7998972B2, “1H-imidazo[4,5-c]quinoline derivatives in the treatment of protein kinase dependent diseases” (Novartis AG, priority 2002, dated 2011).

The structures appear in SMILES notation.

One assay concerns the target T1, Kdr (Homo sapiens, UniProt P35968).
T1 construct: The kinase domain of KDR is expressed as GST-fusion protein using the baculovirus system; made in house
The assay can be described thus: Inhibition of KDR protein tyrosine kinase in vitro. The note with it: GST-fused KDR kinase domain, polyGluTyr(4:1), 8 μM ATP; read-out: IC50 range class, inhibition of Kdr in vitro. It counts as biochemical. The protocol: Inhibition of the enzyme activity of KDR protein tyrosine kinase can be determined as follows: The kinase domain of KDR is expressed as GST-fusion protein using the baculovirus system. The in vitro kinase assay is performed in 96-well plates using the recombinant GST-fused kinase domains expressed in baculovirus and purified over glutathione-Sepharose. ^33P-ATP (Amersham) is used as the phosphate donor, and the polyGluTyr(4:1) peptide (Sigma) is used as acceptor. The buffer is composed as follows: 29 mM Tris-HCl, pH 7.5; 10 mM MgCl2, 1 μM MnCl2, 8 μM ATP, 0.2 μCi ^33P-ATP, 8 μg/ml polyGluTyr. The reaction os carried out in a volume of 30 μl for 10 min at room temperature in the presence of either 1% DMSO or the test compound of formula I at the required concentration in 1% DMSO […]. The reaction is stopped by the addition of ethylenediaminetetraacetic acid to a final concentration of 60 mM. The assay mixture is then transferred onto a Immobilon-PVF membrane (Millipore), which is subsequently washed four times with 0.05% H3PO4 and once with ethanol. After drying, […] of Microscint Cocktail (Packard) is added and scintillation counting is performed (Hewlett-Packard Top Count). IC50 values are calculated by linear regression analysis of the percentage inhibition of each test compound in duplicate, at three concentrations (usually 0.01, 0.1 and 1 μM or 0.1, 1 and 10 μM).

Another assay addresses T2, c-Met (Homo sapiens, UniProt P08581).
T2 construct: c-Met cytoplasmic domain (amino acids 969 to C-terminus); made in house; host or cells: baculovirus / Sf9 cells
The assay is described as follows: Inhibition of c-Met kinase (33P-ATP filter assay). It is filed as biochemical. Particulars: GST-c-Met cytoplasmic domain, poly(EY) substrate; read-out: IC50 range class, inhibition of c-Met. The text has this: Compounds of the formula I, for example, are able to inhibit c-Met kinase as mentioned already in the introduction. Using the sequence disclosed by Chan et al. (see Chan, A M-L, King H W S, Tempest P R, Deakin E A, Cooper C S, Brookes P. Primary structure of the met protein tyrosine kinase domain. Oncogene 1987; 12:229-233), a construct with this sequence, after hooking to a GST tag, was cloned into baculovirus and expressed in Sf9 cells. After partial purification by affinity chromatography on GST agarose resulting in a >90% pure preparation (SDS-PAGE), the kinase activity of this construct is used for inhibition assays using the compounds of formula I. The quality of the purified kinase preparations is highly reproducible: 9 batches of c-Met gives an average specific activity of 32.3±5.7 nmol/mg·min.
For inhibition studies, the following experimental protocol is used:
In vitro protein kinase assays are performed in 96-well plates. The amount of enzyme used in kinase assays and the incubation time for the kinase reaction are adjusted so that maximally 25% (in routine experiments <10%) of the substrate ATP are consumed.
Test compounds of the formula I are first dissolved in DMSO at a concentration of 1-10 mM (stock solution) and then further diluted with water/3% DMSO as required so that the final DMSO concentration in the assay is 1%.
The assay components are mixed in the following order: • 10 μl 3×compound (in 3% DMSO) • 10 μl 3×assay mix (MgCl2/MnCl2/ATP/^33P-ATP/poly(EY)) • 10 μl 3×enzyme dilution
Assays are incubated for 15 min (in special cases up to 60 min) at ambient temperature, reactions terminated by addition of 10 μl 0.25 M EDTA pH 7, then 20 μl transferred to a Millipore Immobilon^P membrane (previously soaked for 5 min with methanol, rinsed with water, then soaked for 5 min with 0.5% H3PO4 and mounted on vacuum manifold) with disconnected vacuum source. After spotting all samples, vacuum is connected and each well rinsed with 200 μl 0.5% H3PO4. Membranes are removed and washed 4× on shaker with 0.5% H3PO4, once with methanol. Membranes are counted after drying at ambient temperature, mounting in Packard TopCount 96-well frame, and addition of 10 μl/well of the scintillator Microscint™ (Packard).
IC50 values are calculated by logarithmic regression analysis of the percentage inhibition of each compound at 4 concentrations (usually 3- or 10-fold dilution series starting at 10 μM). In each experiment, the actual inhibition by reference compound is used for normalization of IC50 values to the basis of an average value of the reference inhibitor: Normalized IC50=measured IC50·average ref. IC50/measured ref. IC50 Example: • Reference inhibitor in experiment 0.4 μM, average 0.3 μM • Test compound in experiment 1.0 μM, normalization: 1.0·0.3/0.4=0.75 μM
For example, staurosporine or a synthetic staurosporine derivative are used as reference compounds.

In the next assay the target is CDK1. The assay can be described thus: Inhibition of CDK1 (p34cdc2/cyclin Bcdc13 kinase, histone H1 substrate). The note with it: read-out: IC50 range class, inhibition of CDK1 in vitro. It counts as biochemical, starfish. The protocol:
Starfish oocytes are induced into the M phase with 10 μM 1-methyl-adenine, frozen in liquid nitrogen and stored at −80° C. The ooctyes are homogenized and centrifuged, as described in D. Arlon et al., Cell 55, 371-378 (1988) and V. Rialet und L. Meijer, Anticancer Res. 11, 1581-1590 (1991), as required. For purification of the p34^cdc2/cyclin B^cdc13 kinase, the supernatant of the oocytes is introduced onto p9^CKShs Sepharose grains produced from recombinant human protein p9^CKShs, as described in L. Azzi et al., Eur. J. Biochem. 203, 353-360 (1992). After 30 minutes at 4° C. under constant rotation, the grains are washed thoroughly and the active p34^cdc2/cyclin B^cdc13 kinase is eluted with free protein p9^CKShs (3 mg/ml). The kinase eluted is tested as described in L. Meijer et al., EMBO J. 8, 2275-2282 (1989) and EMBO J. 10, 1545-1554 (1991), using histone H1 as the substrate. In this test, the compounds of the formula I and their pharmaceutically acceptable salts have an inhibiting concentration IC50 [μmol/l] of 0.01 to 10, usually of 0.05 to 1.

The target in a further assay is T3, Abl (Homo sapiens, UniProt P00519).
T3 construct: The His-tagged kinase domain of c-Abl is cloned and expressed in the baculovirus/Sf9 system; His; made in house; host or cells: baculovirus / Sf9 cells
T3 sequence (P00519 242-493 limits assumed): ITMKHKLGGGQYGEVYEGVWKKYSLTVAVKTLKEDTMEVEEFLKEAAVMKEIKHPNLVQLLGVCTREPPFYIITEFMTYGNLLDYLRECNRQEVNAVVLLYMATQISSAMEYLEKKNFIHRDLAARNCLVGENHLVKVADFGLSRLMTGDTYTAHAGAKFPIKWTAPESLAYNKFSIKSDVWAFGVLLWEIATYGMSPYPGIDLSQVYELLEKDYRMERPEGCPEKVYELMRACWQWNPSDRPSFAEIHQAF
The assay is described as follows: Inhibition of c-Abl protein-tyrosine kinase (filter binding assay). It counts as biochemical. Particulars: His-tagged c-Abl kinase domain, Poly-AEKY, 5 μM ATP; read-out: IC50 range class, inhibition of Abl in vitro. The protocol:
An in vitro enzyme assay is performed in 96-well plates as a filter binding assay as described by Geissler et al. in Cancer Res. 1992; 52:4492-4498, with the following modifications. The His-tagged kinase domain of c-Abl is cloned and expressed in the baculovirus/Sf9 system as described by Bhat et al. in J. Biol. Chem. 1997; 272:16170-16175. A protein of 37 kD (c-Abl kinase) is purified by a two-step procedure over a Cobalt metal chelate column followed by an anion exchange column with a yield of 1-2 mg/L of Sf9 cells (Bhat et al., reference cited). The purity of the c-Abl kinase is >90% as judged by SDS-PAGE after Coomassie blue staining. The assay contains (total volume of 30 μL): c-Abl kinase (50 ng), 20 mM Tris.HCl, pH 7.5, 10 mM MgCl2, 10 μM Na3VO4, 1 mM DTT and 0.06 μCi/assay [γ^33 P]-ATP (5 μM ATP) using 30 μg/mL poly-Ala,Glu,Lys,Tyr-6:2:5:1 (Poly-AEKY, Sigma P1152) in the presence of 1% DMSO. Reactions are terminated by adding 10 μL of 250 mM EDTA and 30 μL of the reaction mixture is transferred on to Immobilon-PVDF membrane (Millipore, Bedford, Mass., USA) previously soaked for 5 min with methanol, rinsed with water, then soaked for 5 min with 0.5% H3PO4 and mounted on vacuum manifold with disconnected vacuum source. After spotting all samples, vacuum is connected and each well rinsed with 200 μL 0.5% H3PO4. Membranes are removed and washed on a shaker with 0.5% H3PO4 (4 times) and once with ethanol. Membranes are counted after drying at ambient temperature, mounting in Packard TopCount 96-well frame, and addition of 10 μL/well of Microscint™ (Packard).

T1 sequence (P35968 834-1162 limits assumed): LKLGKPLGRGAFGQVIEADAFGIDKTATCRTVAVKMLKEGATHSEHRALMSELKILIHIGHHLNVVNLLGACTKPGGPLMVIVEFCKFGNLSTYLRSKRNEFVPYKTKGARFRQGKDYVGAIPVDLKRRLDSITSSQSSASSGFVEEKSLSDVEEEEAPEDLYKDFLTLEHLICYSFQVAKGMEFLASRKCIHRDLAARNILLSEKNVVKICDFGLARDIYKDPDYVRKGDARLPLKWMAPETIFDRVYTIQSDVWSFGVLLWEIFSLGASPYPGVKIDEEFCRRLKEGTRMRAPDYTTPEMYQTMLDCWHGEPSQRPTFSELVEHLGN
T2 sequence (P08581 969-1390 limits assumed): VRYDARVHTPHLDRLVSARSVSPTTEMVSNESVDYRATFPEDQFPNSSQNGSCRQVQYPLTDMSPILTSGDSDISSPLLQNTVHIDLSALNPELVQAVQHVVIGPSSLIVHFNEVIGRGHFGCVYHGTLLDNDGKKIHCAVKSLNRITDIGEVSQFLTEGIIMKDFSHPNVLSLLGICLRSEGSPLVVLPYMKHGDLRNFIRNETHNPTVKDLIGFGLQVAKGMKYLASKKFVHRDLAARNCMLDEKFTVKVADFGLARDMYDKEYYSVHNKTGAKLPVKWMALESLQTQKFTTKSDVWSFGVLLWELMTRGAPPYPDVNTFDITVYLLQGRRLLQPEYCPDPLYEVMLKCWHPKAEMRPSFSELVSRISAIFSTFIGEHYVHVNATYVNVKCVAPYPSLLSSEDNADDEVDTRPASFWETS

Broadly, the IC50 is the concentration at which inhibition is half-maximal. With `COc1ccc2ncc3ncn(-c4ccccc4)c3c2c1` [Example 48, 8-Methoxy-1-phenyl-1H-imidazo[4,5-]quinoline], the IC50 at Kdr lay within 1000 to 2000 nM.
Take `CCc1ccc2ncc3ncn(-c4ccccc4F)c3c2c1` [Example 50, 8-Ethyl-1-(2-fluoro-phenyl)-1H-imidazo[4,5-c]quinoline]: the half-maximal inhibitory concentration (IC50) at c-Met and on CDK1 was ≤ 500 nM in each case.
As for `Nc1cccc(-n2cnc3cnc4ccc(-c5ccccc5)cc4c32)c1` [Example 58, 3-(8-Phenyl-imidazo[4,5-c]quinolin-1-yl)-phenylamine], the half-maximal inhibitory concentration (IC50) at Abl and on Kdr was ≤ 500 nM in each case.
With `OCc1cccc(-n2cnc3cnc4ccc(-c5ccccc5)cc4c32)c1` [Example 62, [3-(8-Phenyl-imidazo[4,5-c]quinolin-1-yl)-phenyl]-methanol], the half-maximal inhibitory concentration (IC50) at Abl and at Kdr was ≤ 500 nM in each case.
Take `O=c1[nH]c2cnc3ccc(Br)cc3c2n1-c1ccccc1Cl` [Example 93, 8-Bromo-1-(2-chloro-phenyl)-1,3-dihydro-imidazo[4,5-c]quinolin-2-one]: the IC50 on Kdr was 500 to 1000 nM; on c-Met, ≤ 500 nM.
`Cn1c(=O)n(-c2ccccc2Cl)c2c3cc(Br)ccc3ncc21` [Example 104, 8-Bromo-1-(2-chloro-phenyl)-3-methyl-1,3-dihydro-imidazo[4,5-c]quinolin-2-one]: the values for the half-inhibitory concentration (IC50) at c-Met and at CDK1 were ≤ 500 nM and 1000 to 2000 nM, respectively.
In the case of `CCn1c(=O)n(-c2ccccc2Cl)c2c3cc(Cl)ccc3ncc21` [Example 108, 8-Chloro-1-(2-chloro-phenyl)-3-ethyl-1,3-dihydro-imidazo[4,5-c]quinolin-2-one], the IC50 on Kdr is ≤ 500 nM; on c-Met, 500 to 1000 nM; at CDK1 it was ≤ 500 nM.
Consider `CCn1c(=O)n(-c2ccccc2Cl)c2c3cc(Br)ccc3ncc21` [Example 113, 8-Bromo-1-(2-chloro-phenyl)-3-ethyl-1,3-dihydro-imidazo[4,5-c]quinolin-2-one], for which the values for the half-maximal inhibitory concentration (IC50) at Kdr, on c-Met and at CDK1 were 1000 to 2000 nM, ≤ 500 nM and 1000 to 2000 nM, respectively.
As for `CC(C)n1c(=O)n(-c2ccccc2Cl)c2c3cc(Br)ccc3ncc21` [Example 114, 8-Bromo-1-(2-chloro-phenyl)-3-isopropyl-1,3-dihydro-imidazo[4,5-c]quinolin-2-one], the results for the IC50 at Kdr, on c-Met and at CDK1 were ≤ 500 nM, 500 to 1000 nM and ≤ 500 nM, respectively.
On to `O=c1n(CC2CC2)c2cnc3ccc(Cl)cc3c2n1-c1ccccc1Cl` [Example 128, 8-Chloro-1-(2-chloro-phenyl)-3-(cyclopropyl-methyl)-1,3-dihydro-imidazo[4,5-c]quinolin-2-one], for which the concentration for half-maximal inhibition (IC50) on CDK1 lay in the range of 500 to 1000 nM.
As to `COc1cccc(-c2ccc3ncc4ncn(-c5ccccc5Cl)c4c3c2)c1` [Example 140, 1-(2-Chloro-phenyl)-8-(3-methoxy-phenyl)-1H-imidazo[4,5-c]quinoline], the IC50 at Abl and at Kdr was ≤ 500 nM each time.
In the case of `COc1ccccc1-c1ccc2ncc3ncn(-c4ccccc4Cl)c3c2c1` [Example 142, 1-(2-Chloro-phenyl)-8-(2-methoxy-phenyl)-1H-imidazo[4,5-c]quinoline], the IC50 at Abl is ≤ 500 nM.
